IC50 data for one compound are collected here from patent US12679837B2, “Aminopyrimidine compound as CDK2/4/6 triple inhibitor” (CISEN PHARMACEUTICAL CO., LTD, priority 2019, dated 2026).

One assay relates to HCC1806 cells. The experiment in a line: HCC1806 cell activity test (CyQUANT). It counts as cell-based. Conditions: Homo sapiens, 168 h, 7 days, read-out: Antiproliferative activity (IC50) HCC1806. The protocol:
Experimental materials: RPMI-1640 medium, fetal bovine serum, penicillin/streptomycin antibiotics were purchased from Vicente. CyQUANT Cell Proliferation Assays (Cell proliferation assay kit) reagents were purchased from ThermoFisher. The HCC1806 cell line was purchased from Cobioer Biosciences Co., Ltd. Nivo Multilabel Analyzer (PerkinElmer).
Experimental method: HCC1806 cells were seeded in a white 96-well plate, 80 μL of cell suspension per well, which contained 3000 HCC1806 cells. The cell plate was incubated overnight in a carbon dioxide incubator. The compounds to be tested were diluted 5-fold to the 9th concentration with a row gun, that is, from 10 mM to 25.6 nM, and a double-replicate well experiment was set up. 78 μL of medium was added to the middle plate, and then transferred 2 μL per well of the gradient diluted compound to the middle plate according to the corresponding position, mixed well and transferred 20 μL per well to the cell plate. […] After reaching the incubation time, the cell supernatant was removed, and the cell plate was placed in a −80° C. refrigerator for 1 hour, after which 100 μL of Cyquant reagent was added to each well, and a multi-label analyzer was used for reading. Another cell plate was prepared, and the signal value was read as the maximum value (Max value in the equation below) on the day of drug addition to participate in data analysis. […]

In another assay the target is T1, CDK2/CyclinE1 (Homo sapiens, UniProt P24941).
T1 construct: purchased Promega
The experiment in a line: CDK2/CyclinE1 kinase activity test (ADP-Glo). It counts as biochemical. Conditions: 150 μM ATP, 25° C., 60 minutes; read-out: Enzyme activity data (IC50) CDK2/CyclinE1. The protocol:
Nivo Multilabel Analyzer (PerkinElmer).
Experimental method: Kinase buffer dilution enzyme in the kit, substrate, adenosine triphosphate and inhibitor were used. The compounds to be tested were diluted 5-fold to the 8th concentration with a row gun, that is, from 50 μM to 0.65 nM, the concentration of DMSO was 5%, and a double-replicate well experiment was set up. […] The reaction system was placed at 25° C. and reacted for 60 minutes. After the reaction was complete, 5 μL of ADP-Glo reagent was added to each well, and the reaction was continued at 25° C. for 40 minutes. At the end of the reaction, 10 μL of kinase detection reagent was added to each well. After the reaction was continued at 25° C. for 30 minutes, the chemiluminescence was read by a multi-label analyzer with an integration time of 0.5 seconds.
Using the equation (Sample−Min)/(Max−Min)×100% to convert the original data into inhibition rate, the IC50 value can be obtained by curve fitting with four parameters (obtained by the mode of log(inhibitor) vs. response—Variable slope in GraphPad Prism). Table 1 provides the enzymatic inhibitory activities of the compounds of the present invention on CDK2/CyclinA2, CDK2/CyclinE1, CDK4/CyclinD1, CDK6/CyclinD1, CDK9/CyclinT1.
(In general: In ADP-Glo the light output rises with the ADP produced.)

Each structure is given as a SMILES string.

On to `C[C@@]1(O)CCC[C@H]1N1C(=O)CCc2cnc(NC3CCN(S(C)(=O)=O)CC3)nc21` [Compound 1A], for which the IC50 in the assay with HCC1806 cells came out at 155 nM; on CDK2/CyclinE1, 1.19 nM.
